Experiments:
[1] = Drug excretion in New Zealand white rabbit urine assessed as NSC-102816 equivalent excretion at 15 mg/kg, iv after 8 hrs by liquid scintillation counting; type: ADME, organism-based, Oryctolagus cuniculus; design: dose 15 mg/kg, route intravenous; conditions: in vivo
[2] = Drug excretion in New Zealand white rabbit bile assessed as NSC-102816 equivalent excretion at 15 mg/kg, iv after 8 hrs by liquid scintillation counting; type: ADME, organism-based, Oryctolagus cuniculus; design: dose 15 mg/kg, route intravenous; conditions: in vivo

Drug excretion [1] | Drug excretion [2] | Compound
2.53 %ID | 0.88 %ID | Nc1n[14cH]n([C@@H]2O[C@H](CO)[C@@H](O)[C@H]2O)c(=O)n1
35.3 %ID | 1 %ID | N[14c]1ncn([C@@H]2O[C@H](CO)[C@@H](O)[C@H]2O)c(=O)n1
